Measurements: patent US10941157B2, “Pesticidal compositions and uses thereof” (Gilead Apollo, LLC, priority 2015, dated 2021)
In brackets after ≈: the same amount, converted by molar mass. Where two headings read alike, the source gives them in different places.

Columns and labels:
Botrtyis cinerea (Bc) = test: In vitro pathogen growth inhibition assay, Bc; format: cell-based; details: 48 h
How it was run: (§1)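 Value reported is the compound concentration reaching ≥90% growth inhibition, from OD readings at 24 and 48 h after blank subtraction, confirmed visually. Inoculum was spores diluted in 17% V8 medium, except Rs, using 1.5 mm mycelial plugs in ¼ PDB; actual compound concentration corrected via OD600.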

[1] = test system: Collectotrichum graminicola (Cg); test: In vitro pathogen growth inhibition assay, Cg; format: cell-based; details: 48 h
How it was run: as §1

Diplodia maydis (Dm) = test: In vitro pathogen growth inhibition assay, Dm; format: cell-based; details: Stenocarpella maydis, 48 h
How it was run: as §1

[2] = test system: Fusarium moniliforme (Fm); test: In vitro pathogen growth inhibition assay, Fm; format: cell-based; details: Fusarium verticillioides
How it was run: as §1

[3] = test system: Fusarium virguliforme (Fv); test: In vitro pathogen growth inhibition assay, Fv; format: cell-based
How it was run: as §1

[4] = test system: Phytophthora capsici (Pc); test: In vitro pathogen growth inhibition assay, Pc; format: cell-based; details: 48 h
How it was run: as §1

Rhizoctonia solani (Rs) = test: In vitro pathogen growth inhibition assay, Rs (mycelial plugs); format: cell-based; details: Rhizoctonia solani, 48 h, mycelial plugs
How it was run: as §1

Septoria tritici (St) = test: In vitro pathogen growth inhibition assay, St; format: cell-based; details: Zymoseptoria tritici, 48 h
How it was run: as §1

[5] = test system: Saccharomyces cerevisiae (Sc); test: Yeast growth inhibition assay; format: cell-based; details: Saccharomyces cerevisiae, ≥75% inhibition, read-out: Compound Concentration (ppm) sufficient for ≥75% inhibition, Sc
Description: Both tables list the concentration of each compound that was sufficient to ≥90% inhibition of growth for each of the fungal pathogens listed above. In addition, some of compounds were tested in a yeast growth inhibition assay for Saccharomyces cerevisiae (Sc). Table 2 lists the concentration of the tested compound that was sufficient to ≥75% inhibition of Saccharomyces cerevisiae (Sc).

[6] = test system: Blumeria graminis f. sp. hordei; test: Foliar protection test for barley powdery mildew control; format: in vivo; details: foliar spray on Hordeum vulgare cv. Perry, inoculated 24 hours after treatment, evaluated 7 days later
How it was run: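 Protective foliar test: compound atomized onto both leaf surfaces of 6-day-old Hordeum vulgare cv. Perry, followed after 24 h by spore-cloud inoculation from colonized untreated plants. Disease rated on leaves 7 days on, plants held at 20 to 22° C and 70% RH.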

Sphaerotheca fuliginea = test: Foliar protection for cucumber powdery mildew control; format: in vivo; details: foliar spray on Cucumis sativus cv. Straight Eight, inoculated 24 hours after treatment, evaluated 7 days later
How it was run: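 Protective foliar spray on 10-day-old Straight Eight cucumbers, with S. fuliginea spores dusted from infected stock plants 24 h after treatment. Disease developed at 23–27 °C, 60% RH and a 16 h photoperiod. Leaves were rated for mildew growth after 7 days; test rates 10 ppm or below.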

[7] = test system: Mycosphaerella graminicola (synthetic Septoria tritici); test: Foliar protection test for wheat septoria leaf blotch control; format: in vivo; details: foliar spray on Triticum aestivum cv. WinterHawk, inoculated 1 hour after treatment, evaluated 16 days later
Fusarium graminearum = format: in vivo; details: spray on flowering Triticum aestivum cv. Samson, inoculated 24 hours after treatment, evaluated 14 days later
Puccinia triticina = test: Foliar protection test for wheat leaf rust control; format: in vivo; details: foliar application to wheat (Triticum aestivum cv. Winterhawk), evaluated 10 days later
Phakopsora pachyrhizi = test: Foliar protection test for Asian soybean rust control; format: in vivo; details: foliar application to soybean (Glycine max AG4832), percent disease area evaluated 14 days later
[8] = ≥90% inhibition, 48 hours vs 2% DMSO control, read-out: Compound Concentration (ppm) sufficient for ≥90% inhibition of growth, Bc
[9] = ≥90% inhibition, 48 hours vs 2% DMSO control, read-out: Compound Concentration (ppm) sufficient for ≥90% inhibition of growth, Cg
[10] = ≥90% inhibition, 48 hours vs 2% DMSO control, read-out: Compound Concentration (ppm) sufficient for ≥90% inhibition of growth, Dm
[11] = ≥90% inhibition, 48 hours vs 2% DMSO control, read-out: Compound Concentration (ppm) sufficient for ≥90% inhibition of growth, Fm
[12] = ≥90% inhibition, 48 hours vs 2% DMSO control, read-out: Compound Concentration (ppm) sufficient for ≥90% inhibition of growth, Fv
[13] = ≥90% inhibition, 48 hours vs 2% DMSO control, read-out: Compound Concentration (ppm) sufficient for ≥90% inhibition of growth, Pc
[14] = ≥90% inhibition, 48 hours vs 2% DMSO control, read-out: Compound Concentration (ppm) sufficient for ≥90% inhibition of growth, Rs
[15] = ≥90% inhibition, 48 hours vs 2% DMSO control, read-out: Compound Concentration (ppm) sufficient for ≥90% inhibition of growth, St
[16] = ≥90% growth inhibition, 48 hours, vs 2% DMSO control, read-out: Compound Concentration (ppm) sufficient for ≥90% inhibition of Bc
[17] = ≥90% growth inhibition, 48 hours, vs 2% DMSO control, read-out: Compound Concentration (ppm) sufficient for ≥90% inhibition of Cg
[18] = ≥90% growth inhibition, 48 hours, vs 2% DMSO control, read-out: Compound Concentration (ppm) sufficient for ≥90% inhibition of Dm
[19] = ≥90% growth inhibition, 48 hours, vs 2% DMSO control, read-out: Compound Concentration (ppm) sufficient for ≥90% inhibition of Fm
[20] = ≥90% growth inhibition, 48 hours, vs 2% DMSO control, read-out: Compound Concentration (ppm) sufficient for ≥90% inhibition of Fv
[21] = ≥90% growth inhibition, 48 hours, vs 2% DMSO control, read-out: Compound Concentration (ppm) sufficient for ≥90% inhibition of Pc
[22] = ≥90% growth inhibition, 48 hours, vs 2% DMSO control, read-out: Compound Concentration (ppm) sufficient for ≥90% inhibition of Rs
[23] = ≥90% growth inhibition, 48 hours, vs 2% DMSO control, read-out: Compound Concentration (ppm) sufficient for ≥90% inhibition of St

| SMILES | IC90 (Botrtyis cinerea (Bc); [8]) | IC90 [1, 9] | IC90 (Diplodia maydis (Dm); [10]) | IC90 [2, 11] | IC90 [3, 12] | IC90 [4, 13] | IC90 (Rhizoctonia solani (Rs); [14]) | IC90 (Septoria tritici (St); [15]) | IC75 [5] | other results |
| --- | --- | --- | --- | --- | --- | --- | --- | --- | --- | --- |
| COc1ccc(F)cc1[C@H](Cn1c(=O)n(C(C)(C)C(N)=O)c(=O)c2c(C)c(-n3nccn3)sc21)OC1CCOCC1 [Compound I-102] | 2 µg/mL (≈ 3.41 µM) | 2 µg/mL (≈ 3.41 µM) | 2 µg/mL (≈ 3.41 µM) | 0.4 µg/mL (≈ 0.682 µM) | 2 µg/mL (≈ 3.41 µM) | 10 µg/mL (≈ 17 µM) | ≥ 2 µg/mL | ≥ 50 µg/mL | 1.2 µg/mL (≈ 2.05 µM) | – |
| COc1ccccc1[C@H](Cn1c(=O)n(C(C)(C)C(=O)N2CCCCC2)c(=O)c2c(C)c(-c3ncco3)sc21)O[C@H]1CC[C@@H](O)CC1 [Compound I-110] | 2 µg/mL (≈ 3.07 µM) | > 50 µg/mL | 10 µg/mL (≈ 15.4 µM) | 0.4 µg/mL (≈ 0.615 µM) | 2 µg/mL (≈ 3.07 µM) | > 50 µg/mL | 50 µg/mL (≈ 76.8 µM) | > 50 µg/mL | 33.3 µg/mL (≈ 51.2 µM) | – |
| COc1ccccc1[C@H](Cn1c(=O)n(C(C)(C)C(=O)N2CCOCC2)c(=O)c2c(C)c(-c3ncco3)sc21)OC1CCOCC1 [Compound I-152] | 10 µg/mL (≈ 15.7 µM) | 50 µg/mL (≈ 78.3 µM) | 50 µg/mL (≈ 78.3 µM) | 2 µg/mL (≈ 3.13 µM) | > 50 µg/mL | > 50 µg/mL | > 50 µg/mL | > 50 µg/mL | > 33 µg/mL | – |
| COc1ccc(F)cc1[C@H](Cn1c(=O)n(CCS(N)(=O)=O)c(=O)c2c(C)c(-c3ncco3)sc21)OC1CCOCC1 [Compound I-148] | 10 µg/mL (≈ 16.4 µM) | 50 µg/mL (≈ 82.1 µM) | > 10 µg/mL | 2 µg/mL (≈ 3.29 µM) | 50 µg/mL (≈ 82.1 µM) | > 50 µg/mL | 50 µg/mL (≈ 82.1 µM) | > 50 µg/mL | 33 µg/mL (≈ 54.2 µM) | – |
| CCOC(=O)c1sc2c(c1C)c(=O)n(C(C)(C)C(N)=O)c(=O)n2C[C@H](OC(C)C)c1ccccc1OC [Compound I-155] | 2 µg/mL (≈ 3.76 µM) | 50 µg/mL (≈ 94.1 µM) | 10 µg/mL (≈ 18.8 µM) | 2 µg/mL (≈ 3.76 µM) | 10 µg/mL (≈ 18.8 µM) | > 50 µg/mL | 50 µg/mL (≈ 94.1 µM) | > 50 µg/mL | 33.3 µg/mL (≈ 62.6 µM) | – |
| COc1ccccc1[C@H](Cn1c(=O)n([C@@H](C)C(=O)N(C)C(C)C)c(=O)c2c(C)c(-n3nccn3)sc21)OCCC#N [Compound I-239, (S)-2-(1-((R)-2-(2-cyanoethoxy)-2-(2-methoxyphenyl)ethyl)-5-methyl-2,4-dioxo-6-(2H-1,2,3-triazol-2-yl)-1,4-dihydrothieno[2,3-d]pyrimidin-3 (2H)-yl)-N-isopropyl-N-methylpropanamide] | – | – | – | – | – | – | – | – | – | IC90 (Botrtyis cinerea (Bc); [16]): 2 µg/mL (≈ 3.45 µM); IC90 [1, 17]: 2 µg/mL (≈ 3.45 µM); IC90 (Diplodia maydis (Dm); [18]): 2 µg/mL (≈ 3.45 µM); IC90 [2, 19]: 0.08 µg/mL (≈ 0.138 µM); IC90 [3, 20]: 0.08 µg/mL (≈ 0.138 µM); IC90 [4, 21]: ≥ 10 µg/mL; IC90 (Rhizoctonia solani (Rs); [22]): 0.08 µg/mL (≈ 0.138 µM); IC90 (Septoria tritici (St); [23]): ≥ 10 µg/mL; Barley Powdery Mildew Control at a compound concentration of 10 ppm or lower [6]: AA (≥85% control of barley powdery mildew); Cucumber Powdery Mildew Control at a compound concentration of 10 ppm or lower (Sphaerotheca fuliginea): AA (≥85% control of cucumber powdery mildew); Septoria Leaf Blotch Control at a compound concentration of 25 ppm or lower [7]: D (<25% control of wheat septoria leaf blotch); Wheat Fusarium Head Blight Control at a compound concentration of 25 ppm or lower (Fusarium graminearum): C (from 25 to 49% control of wheat fusarium head blight); Wheat Leaf Rust Control at a compound concentration of 10 ppm or lower (Puccinia triticina): AA (≥85% control of wheat leaf rust); Asian Soybean Rust Control at a compound concentration of 25 ppm or lower (Phakopsora pachyrhizi): AA (≥85% control of Asian soybean rust) |
| CCOC(=O)c1sc2c(c1C)c(=O)n(C(C)(C)C(=O)NC(C)C)c(=O)n2C[C@H](O)c1cc(F)ccc1OC [Compound I-186, (R)-ethyl-1-(2-(5-fluoro-2-methoxyphenyl)-2-hydroxyethyl)-3-(1-(isopropylamino)-2-methyl-1-oxopropan-2-yl)-5-methyl-2,4-dioxo-1,2,3,4-tetrahydrothieno[2,3-d]pyrimidine-6-carboxylate] | – | – | – | – | – | – | – | – | – | IC90 (Botrtyis cinerea (Bc); [16]): 0.4 µg/mL (≈ 0.728 µM); IC90 [1, 17]: 2 µg/mL (≈ 3.64 µM); IC90 (Diplodia maydis (Dm); [18]): 2 µg/mL (≈ 3.64 µM); IC90 [2, 19]: 0.08 µg/mL (≈ 0.146 µM); IC90 [3, 20]: 0.08 µg/mL (≈ 0.146 µM); IC90 [4, 21]: > 50 µg/mL; IC90 (Rhizoctonia solani (Rs); [22]): 0.4 µg/mL (≈ 0.728 µM); IC90 (Septoria tritici (St); [23]): > 50 µg/mL; Barley Powdery Mildew Control at a compound concentration of 10 ppm or lower [6]: A (from 70% to 84% control of barley powdery mildew); Cucumber Powdery Mildew Control at a compound concentration of 10 ppm or lower (Sphaerotheca fuliginea): C (from 25 to 49% control of cucumber powdery mildew); Septoria Leaf Blotch Control at a compound concentration of 25 ppm or lower [7]: D (<25% control of wheat septoria leaf blotch); Wheat Fusarium Head Blight Control at a compound concentration of 25 ppm or lower (Fusarium graminearum): B (from 50 to 69% control of wheat fusarium head blight); Wheat Leaf Rust Control at a compound concentration of 10 ppm or lower (Puccinia triticina): C (from 25 to 49% control of wheat leaf rust); Asian Soybean Rust Control at a compound concentration of 25 ppm or lower (Phakopsora pachyrhizi): D (<25% control of Asian soybean rust) |
